Tested on: Eschericia coli strain ATCC25922
Assay: standard microdilution assay to determine minimum inhibitory concentrations (MICs)
Format: cell-based
Details: Escherichia coli, ATCC25922, Eschericia coli strain ATCC25922, standard microdilution assay; read-out: E. coli ATCC25922 MIC
Description: Minimum inhibitory concentrations (MICs) are determined by the microdilution method, typically in a final volume of 100 microliters, according to protocols outlined by The Clinical and Laboratory Standards Institute [CLSI; formerly the National Committee for Clinical Laboratory Standards (NCCLS)]. See CLSI: Methods for dilution antimicrobial susceptibility tests for bacteria that grow aerobically; approved standard-fifth edition. Wayne, Pa.: NCCLS; 2000. The assays can be also be performed in microtiter trays according to conventional methodologies as published by the CLSI. See CLSI. Methods for Dilution Antimicrobial Susceptibility Tests for Bacteria That Grow Aerobically; Approved Standard-Seventh Edition. CLSI Document M7-A7 [ISBN 1-56238-587-9] CLSI, 940 West Valley Road, Suite 1400, Wayne Pa. 19087-1898 USA, 2006).
The compounds of the present invention were tested for antimicrobial activity. The compounds were run against Eschericia coli strain ATCC25922 using a standard microdilution assay to determine minimum inhibitory concentrations (MICs). […] A “N/A” means that data is unavailable. It will be recognized by one skilled in the art that the compounds can be assessed against other bacterial organisms and that the presentation of data for activity against Eschericia coli is illustrative and in no way is intended to limit the scope of the present invention. The compounds of the present invention can be assayed against a range of other microorganisms depending upon the performance activity desired to be gathered. Furthermore, the “+”, “−”, and “N/A” representation and the selection of a cutoff value of 16 micrograms/ml is also illustrative and in no way is intended to limit the scope of the present invention.

Row | Structure (SMILES) | MIC [µg/mL]
1 | N=C(N)NCCCCCN1CCC(c2c[nH]c(NC(=O)Nc3ccccc3OC(F)(F)F)nc2=O)CC1 [Compound 584] | > 16
2 | NCCCNC(CCCN)c1ccc(-n2ccc(NC(N)=O)nc2=O)cc1 (stereo not drawn) [Compound 144] | > 16
3 | NCCCN(CCCN)Cc1ccc(-c2c[nH]c(Nc3ccc(C(F)(F)F)cc3)nc2=O)cc1F [Compound 489] | > 16
4 | NCCCN(CCCN)Cc1ccc(-c2c[nH]c(Nc3nc4ccccc4s3)nc2=O)cc1F [Compound 383] | > 16
5 | NCCCNCc1ccc(-c2c[nH]c(Nc3ccccc3C(F)(F)F)nc2=O)cc1C(F)(F)F [Compound 376] | > 16
6 | CN(C)c1ccc(C(=O)Nc2ccn(CCCC(CCCNC(=N)N)NCCCN)c(=O)n2)cc1 (stereo not drawn) [Compound 176] | < 16
7 | NCCC[C@H](N)CCCn1ccc(N)nc1=O [Compound 116] | > 16
8 | N=C(N)NCCCCN1CCC(c2c[nH]c(NC(=O)Nc3ccccc3OC(F)(F)F)nc2=O)CC1 [Compound 548] | > 16
9 | CN(C)C(=O)CN1CCN(c2ccc(NC(=O)Nc3ccn(CCC[C@H](CCCNC(=N)N)NCCCN)c(=O)n3)cc2)CC1 [Compound 214] | > 16
10 | NCCCN[C@H]1CCN(C(=O)Cc2c[nH]c(NC(=O)Nc3ccccc3OC(F)(F)F)nc2=O)C1 [Compound 407] | > 16
11 | NCCCCCN1CCN(c2c[nH]c(NC(=O)Nc3cc(F)c(F)cc3F)nc2=O)CC1 [Compound 504] | > 16
12 | N=C(N)NCCCCCN1CCN(c2c[nH]c(Nc3nc4ccccc4[nH]3)nc2=O)CC1 [Compound 515] | > 16
13 | NCc1ccc(-c2c[nH]c(NC(=O)Nc3ccccc3OC(F)(F)F)nc2=O)cc1F [Compound 247] | > 16
14 | NCCCN[C@@H]1CCN(CCc2c[nH]c(NC(=O)Nc3ccccc3OC(F)(F)F)nc2=O)C1 [Compound 384] | > 16
15 | NCCCN(CCCNC(N)=O)Cc1ccc(-c2c[nH]c(NC(=O)Nc3ccccc3OC(F)(F)F)nc2=O)cc1 [Compound 394] | < 16
16 | CN(C)CCN1CCN(c2ccc(NC(=O)Nc3nc(=O)c(-c4ccc(CN(CCCN)CCCN)cc4)c[nH]3)cc2)CC1 [Compound 210] | < 16
17 | NCCCN1CC2(CCN(c3c[nH]c(NC(=O)Nc4ccccc4OC(F)(F)F)nc3=O)C2)C1 [Compound 527] | > 16
18 | NCCCCOc1nccc(N)n1 [Compound 128] | > 16
19 | Cn1nnc2cc(C(=O)Nc3ccn(CCC[C@H](CCCNC(=N)N)NCCCN)c(=O)n3)ccc21 [Compound 157] | > 16

Row | Structure (SMILES) | MIC [µg/mL]
20 | CN(C)c1ccc(NC(=O)Nc2ccn(CCC[C@H](CCCNC(=N)N)NCCCN)c(=O)n2)cc1 [Compound 152] | > 16
21 | NCCCN(CCCN)Cc1ccc(-n2cc(F)c(N)nc2=O)cc1 [Compound 143] | > 16
22 | NCCCC[C@@H](N)CCn1ccc(N)nc1=O [Compound 115] | > 16
23 | NCCCN1CCN(CCc2c[nH]c(NC(=O)Nc3ccccc3OC(F)(F)F)nc2=O)CC1 [Compound 369] | > 16
24 | CSCCNCc1ccc(-c2c[nH]c(NC(=O)NCc3ccc(F)cc3)nc2=O)cc1Cl [Compound 267] | > 16
25 | Cc1nc(-c2cccc(NC(=O)Nc3nc(=O)c(-c4ccc(CNCCCN)c(F)c4)c[nH]3)c2)cs1 [Compound 424] | > 16
26 | Cn1ncc(C(=O)Nc2nc(=O)c(-c3ccc(CN(CCCN)CCCN)cc3)c[nH]2)c1Cl [Compound 174] | > 16
27 | CN1CCN(C2CCN(c3ccc(NC(=O)Nc4nc(=O)c(-c5ccc(CN(CCCN)CCCN)cc5)c[nH]4)cc3)CC2)CC1 [Compound 209] | < 16
28 | NCC[C@H](N)C(=O)N1CCN(C2C=NC(NC(N)=O)=NC2=O)CC1 (stereo partly drawn) [Compound 161] | > 16
29 | NCCCCN1CCN(c2c[nH]c(Nc3nc4ccccc4[nH]3)nc2=O)CC1 [Compound 530] | > 16
30 | N=C(N)NCc1ccc(-n2ccc(N)nc2=O)cc1 [Compound 127] | > 16
31 | NCCCNCc1ccc(-c2c[nH]c(NC(=O)Nc3ccc(C(F)(F)F)cc3)nc2=O)cc1C(F)(F)F [Compound 273] | > 16
32 | N=C(N)NCCCCCN1CCC(c2c[nH]c(Nc3nc4ccccc4[nH]3)nc2=O)CC1 [Compound 503] | > 16
33 | NCc1ccc(-c2c[nH]c(NC(=O)Nc3ccccc3OC(F)(F)F)nc2=O)cc1C(F)(F)F [Compound 248] | > 16
34 | N=C(N)NCCC[C@H](N)CCCn1ccc(N)nc1=O [Compound 118] | > 16
35 | NCCCCCN1CCN(c2c[nH]c(NC(=O)Nc3ccccc3OC(F)(F)F)nc2=O)CC1 [Compound 518] | > 16
36 | NCCCNCc1ccc(-c2c[nH]c(Nc3nc4ccccc4[nH]3)nc2=O)cc1F [Compound 412] | < 16
37 | N=C(N)NCCCCN[C@H](CCCCNC(=N)N)CCn1ccc(NC(N)=O)nc1=O [Compound 120] | > 16

Other lines, results leading:

Row | MIC [µg/mL] | Structure (SMILES)
38 | > 16 | NCCCNCc1ccc(-c2c[nH]c(NC(=O)Nc3c(F)c(F)c(F)c(F)c3F)nc2=O)cc1F [Compound 449]
39 | > 16 | O=C(O)CCCNCc1ccc(-c2c[nH]c(NC(=O)Nc3cc(F)c(F)cc3F)nc2=O)cc1 [Compound 327]
40 | > 16 | CC(C)=CCNCc1ccc(-c2c[nH]c(NC(=O)Nc3cc(F)c(F)cc3F)nc2=O)cc1 [Compound 317]
41 | > 16 | O=C(Nc1nc(=O)c(-c2ccc(CNCCCO)cc2)c[nH]1)Nc1cc(F)c(F)cc1F [Compound 276]
42 | > 16 | NCCCN(CCCN)Cc1ccc(-c2c[nH]c(NC(=O)Nc3cc(F)c(F)cc3F)nc2=O)cc1F [Compound 311]
43 | < 16 | NCCCNCc1ccc(-c2c[nH]c(NC(=O)Nc3ccc(OC(F)(F)F)cc3)nc2=O)cc1F [Compound 249]
44 | > 16 | NCCCN(CCC(=O)O)Cc1ccc(-c2c[nH]c(NC(=O)Nc3cc(F)c(F)cc3F)nc2=O)cc1 [Compound 320]
45 | > 16 | NCCCNCc1ccc(-c2c[nH]c(NC(=O)Nc3c(Cl)cc(Cl)cc3Cl)nc2=O)cc1F [Compound 461]
46 | > 16 | N=C(N)NCCCNCc1ccc(-c2c[nH]c(NC(=O)NCCOc3cc(F)c(F)cc3F)nc2=O)cc1 [Compound 739]
47 | < 16 | NCCCNCc1ccc(-c2c[nH]c(NC(=O)Nc3ccc(Cl)cc3Cl)nc2=O)cc1F [Compound 496]
48 | < 16 | NCCCN(Cc1ccncc1)Cc1ccc(-c2c[nH]c(NC(=O)Nc3cc(F)c(F)cc3F)nc2=O)cc1 [Compound 337]
49 | > 16 | NC(=O)NCCCNCc1ccc(-c2c[nH]c(NC(=O)Nc3cc(F)c(F)cc3F)nc2=O)cc1 [Compound 395]
50 | < 16 | N=C(N)NCCCNCc1ccc(-c2c[nH]c(NC(=O)Nc3cc(F)c(F)cc3F)nc2=O)cc1 [Compound 350]
51 | > 16 | NCCCNCc1ccc(-c2c[nH]c(NC(=O)Nc3ccccc3OCCCN)nc2=O)cc1 [Compound 1296]
52 | > 16 | CN(CCCNCc1ccc(-c2c[nH]c(NC(=O)Nc3cc(F)c(F)cc3F)nc2=O)cc1)C(=N)N [Compound 353]
53 | > 16 | CSCCCNCc1ccc(-c2c[nH]c(NC(=O)Nc3ccccc3OC(F)(F)F)nc2=O)cc1 [Compound 282]
54 | > 16 | NCCCN(CCCN)Cc1ccc(-c2c[nH]c(NC(=O)Nc3ccc(F)c(F)c3)nc2=O)cc1 [Compound 171]
55 | > 16 | N=C(Nc1ccccc1)Nc1nc(=O)c(-c2ccc(CNCCCN)c(F)c2)c[nH]1 [Compound 573]
56 | > 16 | O=C(Nc1nc(=O)c(-c2ccc(CNCCCCO)cc2)c[nH]1)Nc1cc(F)c(F)cc1F [Compound 341]
57 | > 16 | O=C(Nc1nc(=O)c(-c2ccc(CNCC(O)CO)cc2)c[nH]1)Nc1cc(F)c(F)cc1F (stereo not drawn) [Compound 284]

— US9845297B2, “Antimicrobial compounds and methods of making and using the same” (Melinta Therapeutics, Inc., priority 2009, dated 2017)
